Experimental data reported in PubChem BioAssay AID179 (DTP/NCI, 2004).
Active and inactive are the calls of the source.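 Rule for the calls: active = compounds giving half or more protection of infected cells from virus-caused growth loss, again on retest; inactive = the rest.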 Where a SMILES comes first, the peptide text is derived from it. [ ]: non-standard residue; d: D form. Abu = CC[CH](N)C(=O)O

System: CEM cells HIV-1 protection, formazan growth assay
Assay: NCI AIDS Antiviral Assay
Settings: for IC50: measured here: growth of uninfected CEM cells
Method in brief: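 Five concentrations of each compound were applied to infected and uninfected human CEM cells. Protection from HIV-1 was judged from growth measured with a soluble formazan assay.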

| Structure (SMILES) | EC50 [µM] | IC50 [µM] | outcome |
| --- | --- | --- | --- |
| CC1(C)CC(=O)C(CC2C(=O)c3ccccc3C2=O)C(=O)C1C(=O)C(=O)Nc1cccc2ccc(O)cc12 (stereo unspecified) | > 51.3 | > 51.3 |  |
| CCOC(=O)c1ccc(OCc2nc3cc(C(F)(F)F)ccc3nc2-c2ccccc2)cc1 | > 200 | 87.1 |  |
| Oc1ccccc1/C=N/N1C(=S)N(c2ccccc2)C(=Nc2ccccc2)C1=Nc1ccccc1 | > 20 | 1.29 |  |
| Cn1c(=O)c2ncnnc2n(C)c1=O | > 200 | 93.3 |  |
| COc1ccccc1[B-]12OCC[N+]1(CNC(=O)C1=C(O)C3(O)C(=O)C4=C(O)c5c(O)cccc5C(C)(O)C4CC3C(N(C)C)C1=O)CCO2 (stereo unspecified) | > 27.5 | > 27.5 |  |
| COc1ccc2cc(C(=O)O)ccc2c1OC | > 200 | > 200 |  |
| O=C(O)CCC(NC(=O)c1ccc(CNc2nc3ccccc3nc2C(=O)O)cc1)C(=O)O (stereo unspecified) | > 200 | > 200 |  |
| Cc1cc2c(cc1-c1cc3c(cc1C)C(C(C)C)=C(O)C(=O)/C3=C\Nc1c3ccccc3nc3ccccc13)/C(=C/Nc1c3ccccc3nc3ccccc13)C(=O)C(O)=C2C(C)C | > 100 | 1.74 |  |
| COC(=O)/N=c1\cc(N2CC=CCC2)nc(N)n1O | > 200 | > 200 |  |
| O=C1c2scc(-c3ccccc3)c2-n2cccc21 | > 200 | 17.8 |  |
| C/C=C1/C(=Cc2[nH]c(C=c3[nH]/c(=C/C4=NC(=O)C(CC)=C4C)c(C)c3CCC(=O)O)c(CCC(=O)O)c2C)NC(=O)C1C (stereo unspecified) | > 28.8 | > 28.8 |  |
| Cc1nc2sc(C)c(C)c2c(=O)o1 | > 200 | 95.5 |  |
| C1=Nc2ccccc2N=Cc2ccccc2NCCNc2ccccc21 | > 200 | > 200 |  |
| NC1=NCC(CN2CCOCC2)O1 (stereo unspecified) | > 200 | > 200 |  |
| COc1ccc2[nH]cc(CN3CCC(CO)(c4ccccc4)CC3)c2c1 | > 200 | 91.2 |  |
| CSc1n[nH]c(NC(=O)c2ccccc2CS)n1 | > 64.6 | > 64.6 |  |
| CC1N=C(c2ccccc2)OC1=O (stereo unspecified) | > 200 | > 200 |  |
| OC(=Nc1cc(C(O)=Nc2cc(C(O)=Nc3cc(C(O)=Nc4ccc(C5=NCCN5)cc4)cc(C4=NCCN4)c3)cc(C3=NCCN3)c2)cc(C2=NCCN2)c1)c1ccc(C(O)=Nc2cc(C(O)=Nc3cc(C(O)=Nc4cc(C(O)=Nc5ccc(C6=NCCN6)cc5)cc(C5=NCCN5)c4)cc(C4=NCCN4)c3)cc(C3=NCCN3)c2)cc1 | 14.5 | > 100 |  |
| Cc1ncc([N+](=O)[O-])n1CC(O)CCl (stereo unspecified) | > 200 | > 200 |  |
| COC(=O)CC[C@@H](C)C1CCC2[C@@H]3CC[C@@H]4CC(COS(=O)(=O)c5ccc(C)cc5)CC[C@]4(C)C3CC[C@@]21C (stereo partly specified) | > 8.32 | > 8.32 |  |
| C=C(c1ccccc1)[C@@]1(O)CC[C@@H]1N(CC#N)Cc1ccccc1 |  |  | inactive |
| CC1(C)OC(=O)C2C3C=CC(C2C(=O)O)C31 (stereo unspecified) | > 1120 | > 1120 |  |

| Structure (SMILES) | EC50 [µM] | IC50 [µM] | outcome |
| --- | --- | --- | --- |
| O=C1CC(=O)n2cnc3cccc(c32)N1 | 17.4 | > 200 |  |
| O=C(CCc1nc(=S)[nH][nH]1)Nc1cc(Cl)c(Cl)cc1Cl | > 195 | > 195 |  |
| CCOC(CN=c1nc(N(C)C)ss1)OCC |  |  | inactive |
| Cc1cc2c(=O)c(C)n[nH]c2c(C#N)c1C | > 1170 | 178 |  |
| O=C(/C=C/c1cc(O)c(O)c(O)c1)OCCc1ccccc1 | > 50.1 | 15.5 |  |
| COc1cc(C(=O)C/C(CCCC(=O)Nc2ccccc2[N+](=O)[O-])=N/NC(=O)c2cc3ccccc3cc2O)ccc1O | > 32.4 | 27.5 |  |
| CCOC(=O)C(C)[P+](c1ccccc1)(c1ccccc1)c1ccccc1 (stereo unspecified) | > 200 | 3.09 |  |
| O=C(NCCn1ccnn1)Nc1ccccc1 | > 200 | > 200 |  |
| N=S(=O)(c1ccccc1)c1ccccc1 |  |  | inactive |
| O=S1(=O)c2ccccc2S(=O)(=O)c2ccccc21 | 87.1 | > 200 |  |
| CCC1=C(C[C@H]2NCCc3cc(OC)c(OC)cc32)C[C@H]2c3cc(OC)c(OC)cc3CCN2C1 |  |  | inactive |
| CCOC(=N)COC(=O)c1ccccc1 | > 200 | > 200 |  |
| C[C@@H]1OC2(O)[C@@H]3CCCN3C(=O)N(Cc3ccccc3)N2C1=O (stereo partly specified) | > 200 | > 200 |  |
| Cc1ccnc2c1C(=O)C(=O)C=C2N(C)C |  |  | inactive |
| NC(N)=NS(=O)(=O)c1ccc(NCc2c3ccccc3[n+]([O-])c3ccccc23)cc1 |  |  | inactive |
| NC(N)=N/N=C(/c1nc2ccc([N+](=O)[O-])cc2[nH]c1=O)C(O)c1ccco1 (stereo unspecified) | > 251 | 141 |  |
| O=C(CC(C(=O)c1ccsc1)c1ccc2c(c1)OCO2)c1ccccc1 (stereo unspecified) | > 200 | > 200 |  |
| Brc1ccc(CCNCCN2CCCCC2)cc1 | > 102 | 29.5 |  |
| NC1=NS(=O)(=O)Nc2nn(-c3ccccc3)nc21 | > 339 | > 339 |  |
| CCOC(=O)COc1ccc(OCC(=O)OCC)c2c1C(=O)CCCC2=O |  |  | inactive |
| NC(=S)N/N=C1\CC(c2ccccc2)Nc2ccccc21 (stereo unspecified) |  |  | inactive |
| N#CNC(=NCC1CCCO1)Nc1cccnc1 (stereo unspecified) | > 1020 | 933 |  |

| Structure (SMILES) | EC50 [µM] | IC50 [µM] | outcome |
| --- | --- | --- | --- |
| COc1cccc2c1OC(=O)NC2O (stereo unspecified) |  |  | inactive |
| C[Si]1(C)CCCSC1 | > 200 | > 200 |  |
| Cc1ccc(-c2c(C#N)c(-c3ccccc3)n(NS(=O)(=O)c3ccccc3)c(=O)c2C#N)cc1 | > 200 | 28.8 |  |
| CC(=O)NN1CCN(C)CC1 | > 200 | > 200 |  |
| NC1=NNC(=O)C1N=Nc1ccc(S(=O)(=O)Nc2nccs2)cc1 (stereo unspecified) | > 200 | > 200 |  |
| CCC(N)C(=O)NC(C(=O)NC(CC(C)C)C(=O)NC(CC(N)=O)C(=O)NC(Cc1ccccc1)C(=O)O)C(C)O (stereo unspecified) (H-[Abu]TLNF-OH; configuration not given here) |  |  | inactive |
| COc1cc2c(cc1OC)C1(c3ccccc3)ON=C(c3ccccc3)N1CS2 (stereo unspecified) | > 9.33 | > 9.33 |  |
| CC1=NN=C(N)NC1=CC(Sc1ccc(Cl)cc1)c1c(O)ccc2ccccc12 (stereo unspecified) | > 200 | 11.2 |  |
| Cc1cc(=O)c(C#N)c(C)s1 | > 200 | > 200 |  |
| O=S1(=O)O[C@H]2CCCC[C@H]2O1 | > 40.7 | > 40.7 |  |
| CC(C)(Oc1ccc2c(=O)cc(-c3ccccc3)oc2c1)C(=O)Nc1c(Cl)cccc1Cl | > 11.2 | > 11.2 |  |
| CN1Cc2c(ccc3c2OCO3)C2C(O)Cc3cc4c(cc3C21)OCO4 (stereo unspecified) | > 0.912 | 0.234 |  |
| c1ccc2c(c1)SC1Sc3ccccc3[S+]21 (stereo unspecified) | > 200 | 11.5 |  |
| Nc1ncc(CN2CCOCC2)c(-c2ccccc2O)n1 | > 200 | > 200 |  |
| O=C(O)c1csc(C(=O)O)c1 | 162 | 759 |  |
| CCOC(=O)C1=C(N)SCCC1 | > 1320 | 257 |  |
| CC(=O)O[C@H]1CC[C@@]2(C)C(CC[C@]3(C)C2CC[C@]2(C)Oc4c(C)cc(O)cc4C[C@@H]23)C1(C)C (stereo partly specified) |  |  | inactive |
| COc1cc(NCc2ccc3nc(OC)c(OC)nc3c2)cc(OC)c1OC | > 200 | > 200 |  |
| O=c1[nH]c2ccccc2c2c1CCO2 |  |  | inactive |
| S=C1C(=Nc2ccccc2)N(C2CCCCC2)C(=NC2CCCCC2)N1c1ccccc1 | > 200 | 141 |  |
| CN(C)C(=O)c1nnsc1NN=O | > 200 | > 200 |  |
| C/C(N=NS(=O)(=O)c1ccc(C)cc1)=C1\C=CC=CN1O |  |  | inactive |

| Structure (SMILES) | EC50 [µM] | IC50 [µM] | outcome |
| --- | --- | --- | --- |
| CCOC(=O)CCC(NC(=O)c1ccc(OCc2ccc3nc(OC)c(OC)nc3c2)cc1)C(=O)OCC (stereo unspecified) | > 200 | 41.7 |  |
| OC(c1ccc2c(c1)OCO2)c1ccc2c(c1)OCO2 | > 200 | 178 |  |
| CCCc1c(C(=O)OCC)[nH]c(-c2ccc(-c3[nH]c(C(=O)OCC)c(CCC)c3C(=O)OCC)o2)c1C(=O)OCC | > 4.79 | > 4.79 |  |
| O=C(O)c1cccc(S(=O)(=O)c2ccccc2)c1 | > 200 | > 200 |  |
| COc1ccc(OC)c(NC(=O)C2=C(C)NC(C)=C(C(=O)Nc3cc(OC)ccc3OC)C2c2ccccc2)c1 |  |  | inactive |
| COc1cc2ccc(=O)oc2c2c1OC(C)(C)[C@H](OC(=O)C13CCC(C)(C(=O)O1)C3(C)C)[C@@H]2OC(=O)C12CCC(C)(C(=O)O1)C2(C)C (stereo partly specified) | > 200 | > 200 |  |
| C[N+]1(C)C/C(=C\c2ccc(O)cc2)C(=O)/C(=C/c2ccc(O)cc2)C1 | > 77.6 | 56.2 |  |
| COc1cc2oc(-c3ccc4c(c3)OCO4)c(OC)c(=O)c2c(OC)c1O | > 200 | > 200 |  |
| CC(=O)N1C2=CCCC2(C)c2ccccc21 (stereo unspecified) | > 200 | 56.2 |  |
| Brc1cc(C2OCCCO2)ccc1OCc1ccccc1 | > 53.7 | > 53.7 |  |
| COC(=O)C(=O)c1cc2ccccc2n1S(=O)(=O)c1ccccc1 | > 200 | > 200 |  |
| CC(C)(C)c1ccc(OCCOc2ccc(C(C)(C)C)cc2NC=O)c(NC=O)c1 | > 200 | 5.13 |  |
| CCCc1cc2c(=O)c(C(=O)OC)c[nH]c2cc1N(CC)CC | > 200 | > 200 |  |
| CN1C(=O)C2(C=CCC2)c2ccccc21 (stereo unspecified) | > 1260 | 81.3 |  |
| COc1cc2c(c(O)c1OC)C(O)C1CCC(=O)N1C2c1ccc2c(c1)OCO2 (stereo unspecified) | > 200 | 135 |  |
| Nc1nc(C(=O)O)c(N)c(=O)[nH]1 | > 200 | > 200 |  |
| O=C(OCCNC(=O)N1CC1)OCCNC(=O)N1CC1 | > 200 | > 200 |  |
| CCOC(=O)NP(=O)(NC(=O)OCC)NC(=O)OCC |  |  | inactive |
| CC1(CN2CCCCC2)COC(c2ccccc2)(c2ccccc2)OC1 | > 200 | 29.5 |  |
| NN1C(=O)c2cccc3cccc(c23)C1=O | > 100 | 49 |  |
| CN=S(=O)(C[C@]1(O)CC2OC1C1OC(C)(C)OC21)c1ccccc1 (stereo partly specified) | > 708 | > 708 |  |
| CN(C)c1cc2c3ccccc3ccc2c2ccccc12 | > 7.41 | > 7.41 |  |
